Key:
Assay type in all cases: in vivo
[1] = test system: Alopecurus myos.; assay: Pre-emergent herbicidal action (B.2); conditions: 500 bis 2000 [g/ha], evaluated after 3 weeks
Procedure: (§1) Im Gewächshaus wird unmittelbar nach der Einsaat der Versuchspflanzen in Saatschalen die Erdoberfläche mit einer wässrigen Dispersion der Wirkstoffe, erhalten aus einem 25 %igen Emulsionskonzentrat behandelt. Es werden Konzentrationen von 2000-500 g Wirksubstanz/Hektar angewendet. Die Saatschalen werden im Gewächshaus bei 22-25° C und 50-70 % relativer Luftfeuchtigkeit gehalten und der Versuch nach 3 Wochen ausgewertet und die Resultate nach folgender Notenskala ausgewertet. • 1 Pflanze hat nicht gekeimt oder ist eingegangen • 2-3 sehr starke Schäden • 4 starke Schäden • 5 mittlere Schäden, die Pflanzen sind verkümmert • 6 Schäden, die Pflanze kann regenerieren • 7-8 leichte Schäden • 9 normales Wachstum, wie das unbehandelter Pflanzen
(§2) Boniturnoten von 1 bis 4 (insbesondere von 1 bis 3) weisen auf eine gute bis sehr gute Herbizidwirkung hin. Boniturnoten von 6 bis 9 (insbesondere 7 bis 9) weisen auf eine gute Toleranz (insbesondere bei Kulturpflanzen) hin.

[2] = test system: Digitaria sang.; assay: Pre-emergent herbicidal action (B.2); conditions: 500 bis 2000 [g/ha], evaluated after 3 weeks
Procedure: as §1, §2

[3] = test system: Echinochloa crus galli; assay: Pre-emergent herbicidal action (B.2); conditions: 500 bis 2000 [g/ha], evaluated after 3 weeks
Procedure: as §1, §2

[4] = test system: Abutilon; assay: Pre-emergent herbicidal action (B.2); conditions: 500 bis 2000 [g/ha], evaluated after 3 weeks
Procedure: as §1, §2

[5] = test system: Stellaria; assay: Pre-emergent herbicidal action (B.2); conditions: 500 bis 2000 [g/ha], evaluated after 3 weeks
Procedure: as §1, §2

[6] = test system: Sinapis; assay: Pre-emergent herbicidal action (B.2); conditions: 500 bis 2000 [g/ha], evaluated after 3 weeks
Procedure: as §1, §2

[7] = test system: Bromus tectorum; assay: Pre-emergent herbicidal action (B.2); conditions: 500 bis 2000 [g/ha], evaluated after 3 weeks
Procedure: as §1, §2

[8] = test system: Lolium perenne; assay: Pre-emergent herbicidal action (B.2); conditions: 500 bis 2000 [g/ha], evaluated after 3 weeks
Procedure: as §1, §2

[9] = test system: Chrysanthe. leuc.; assay: Pre-emergent herbicidal action (B.2); conditions: 500 bis 2000 [g/ha], evaluated after 3 weeks
Procedure: as §1, §2

[10] = test system: Avena fatua; assay: Pre-emergent herbicidal action (B.2); conditions: 500 bis 2000 [g/ha], evaluated after 3 weeks
Procedure: as §1, §2

[11] = test system: Galium aparine; assay: Pre-emergent herbicidal action (B.2); conditions: 500 bis 2000 [g/ha], evaluated after 3 weeks
Procedure: as §1, §2

[12] = test system: Amaranthus ret.; assay: Pre-emergent herbicidal action (B.2); conditions: 500 bis 2000 [g/ha], evaluated after 3 weeks
Procedure: as §1, §2

[13] = test system: Veronica Sp.; assay: Pre-emergent herbicidal action (B.2); conditions: 500 bis 2000 [g/ha], evaluated after 3 weeks
Procedure: as §1, §2

[14] = test system: Chenopodium Sp.; assay: Pre-emergent herbicidal action (B.2); conditions: 500 bis 2000 [g/ha], evaluated after 3 weeks
Procedure: as §1, §2

[15] = test system: Ipomoea; assay: Pre-emergent herbicidal action (B.2); conditions: 500 bis 2000 [g/ha], evaluated after 3 weeks
Procedure: as §1, §2

[16] = test system: Sorghum halep.; assay: Pre-emergent herbicidal action (B.2); conditions: 500 bis 2000 [g/ha], evaluated after 3 weeks
Procedure: as §1, §2

[17] = test system: Solanum nigrum; assay: Pre-emergent herbicidal action (B.2); conditions: 500 bis 2000 [g/ha], evaluated after 3 weeks
Procedure: as §1, §2

[18] = test system: Alopecurus myos.; assay: Post-emergent herbicidal action, contact herbicide (B.3); conditions: 500 bis 2000 [g/ha], 15 days after treatment
Procedure: as §1, §2
(§3) Eine Anzahl Unkräuter, sowohl monokotyle wie dikotyle, werden nach dem Auflaufen (im 4- bis 6-Blattstadium) mit einer wässrigen Wirkstoffdispersion in einer Dosierung von 2000-500 g Wirksubstanz pro Hektar auf die Pflanzen gespritzt und diese bei 24°-26°C und 45-60 % relativer Luftfeuchtigkeit gehalten. 15 Tage nach der Behandlung wird der Versuch nach dem in Beispiel B.2. gegebenen Massstab bewertet.

[19] = test system: Digitaria sang.; assay: as above; conditions: 500 bis 2000 [g/ha], 15 days after treatment
Procedure: as §1, §2, §3

[20] = test system: Echinochloa crus galli; assay: as above; conditions: 500 bis 2000 [g/ha], 15 days after treatment
Procedure: as §1, §2, §3

[21] = test system: Abutilon; assay: as above; conditions: 500 bis 2000 [g/ha], 15 days after treatment
Procedure: as §1, §2, §3

[22] = test system: Stellaria; assay: as above; conditions: 500 bis 2000 [g/ha], 15 days after treatment
Procedure: as §1, §2, §3

[23] = test system: Sinapis; assay: as above; conditions: 500 bis 2000 [g/ha], 15 days after treatment
Procedure: as §1, §2, §3

[24] = test system: Bromus tectorum; assay: as above; conditions: 500 bis 2000 [g/ha], 15 days after treatment
Procedure: as §1, §2, §3

[25] = test system: Lolium perenne; assay: as above; conditions: 500 bis 2000 [g/ha], 15 days after treatment
Procedure: as §1, §2, §3

[26] = test system: Chrysanthe. leuc.; assay: as above; conditions: 500 bis 2000 [g/ha], 15 days after treatment
Procedure: as §1, §2, §3

[27] = test system: Avena fatua; assay: as above; conditions: 500 bis 2000 [g/ha], 15 days after treatment
Procedure: as §1, §2, §3

[28] = test system: Galium aparine; assay: as above; conditions: 500 bis 2000 [g/ha], 15 days after treatment
Procedure: as §1, §2, §3

[29] = test system: Amaranthus ret.; assay: as above; conditions: 500 bis 2000 [g/ha], 15 days after treatment
Procedure: as §1, §2, §3

[30] = test system: Veronica Sp.; assay: as above; conditions: 500 bis 2000 [g/ha], 15 days after treatment
Procedure: as §1, §2, §3

[31] = test system: Chenopodium Sp.; assay: as above; conditions: 500 bis 2000 [g/ha], 15 days after treatment
Procedure: as §1, §2, §3

[32] = test system: Sorghum halep.; assay: as above; conditions: 500 bis 2000 [g/ha], 15 days after treatment
Procedure: as §1, §2, §3

[33] = test system: Xanthium Sp.; assay: as above; conditions: 500 bis 2000 [g/ha], 15 days after treatment
Procedure: as §1, §2, §3

[34] = test system: Solanum nigrum; assay: as above; conditions: 500 bis 2000 [g/ha], 15 days after treatment
Procedure: as §1, §2, §3

CC1CCc2nc3c(cc2C1)C(=O)N1C(=O)C(C)(C(C)C)N=C31 (stereo not shown) [Verbindung 3.01, 2,8-Dimethyl-2-isopropyl-7,8,9,10-tetrahydro-3H,5H-imidazo[1',2':1,2]pyrrolo[3,4-b]chinolin-3,5-dion]
Herbizidwirkung [1]: gute bis sehr gute Herbizidwirkung (Boniturnoten von 1 bis 4 (insbesondere von 1 bis 3) weisen auf eine gute bis sehr gute Herbizidwirkung hin) | Herbizidwirkung [2]: gute bis sehr gute Herbizidwirkung (Boniturnoten von 1 bis 4 (insbesondere von 1 bis 3) weisen auf eine gute bis sehr gute Herbizidwirkung hin) | Herbizidwirkung [3]: gute bis sehr gute Herbizidwirkung (Boniturnoten von 1 bis 4 (insbesondere von 1 bis 3) weisen auf eine gute bis sehr gute Herbizidwirkung hin) | Herbizidwirkung [4]: gute bis sehr gute Herbizidwirkung (Boniturnoten von 1 bis 4 (insbesondere von 1 bis 3) weisen auf eine gute bis sehr gute Herbizidwirkung hin) | Herbizidwirkung [5]: gute bis sehr gute Herbizidwirkung (Boniturnoten von 1 bis 4 (insbesondere von 1 bis 3) weisen auf eine gute bis sehr gute Herbizidwirkung hin) | Herbizidwirkung [6]: gute bis sehr gute Herbizidwirkung (Boniturnoten von 1 bis 4 (insbesondere von 1 bis 3) weisen auf eine gute bis sehr gute Herbizidwirkung hin) | Herbizidwirkung [7]: gute bis sehr gute Herbizidwirkung (Boniturnoten von 1 bis 4 (insbesondere von 1 bis 3) weisen auf eine gute bis sehr gute Herbizidwirkung hin) | Herbizidwirkung [8]: gute bis sehr gute Herbizidwirkung (Boniturnoten von 1 bis 4 (insbesondere von 1 bis 3) weisen auf eine gute bis sehr gute Herbizidwirkung hin) | Herbizidwirkung [9]: gute bis sehr gute Herbizidwirkung (Boniturnoten von 1 bis 4 (insbesondere von 1 bis 3) weisen auf eine gute bis sehr gute Herbizidwirkung hin) | Herbizidwirkung [10]: gute bis sehr gute Herbizidwirkung (Boniturnoten von 1 bis 4 (insbesondere von 1 bis 3) weisen auf eine gute bis sehr gute Herbizidwirkung hin) | Herbizidwirkung [11]: gute bis sehr gute Herbizidwirkung (Boniturnoten von 1 bis 4 (insbesondere von 1 bis 3) weisen auf eine gute bis sehr gute Herbizidwirkung hin) | Herbizidwirkung [12]: gute bis sehr gute Herbizidwirkung (Boniturnoten von 1 bis 4 (insbesondere von 1 bis 3) weisen auf eine gute bis sehr gute Herbizidwirkung hin) | Herbizidwirkung [13]: gute bis sehr gute Herbizidwirkung (Boniturnoten von 1 bis 4 (insbesondere von 1 bis 3) weisen auf eine gute bis sehr gute Herbizidwirkung hin) | Herbizidwirkung [14]: gute bis sehr gute Herbizidwirkung (Boniturnoten von 1 bis 4 (insbesondere von 1 bis 3) weisen auf eine gute bis sehr gute Herbizidwirkung hin) | Herbizidwirkung [15]: gute bis sehr gute Herbizidwirkung (Boniturnoten von 1 bis 4 (insbesondere von 1 bis 3) weisen auf eine gute bis sehr gute Herbizidwirkung hin) | Herbizidwirkung [16]: gute bis sehr gute Herbizidwirkung (Boniturnoten von 1 bis 4 (insbesondere von 1 bis 3) weisen auf eine gute bis sehr gute Herbizidwirkung hin) | Herbizidwirkung [17]: gute bis sehr gute Herbizidwirkung (Boniturnoten von 1 bis 4 (insbesondere von 1 bis 3) weisen auf eine gute bis sehr gute Herbizidwirkung hin) | Herbizidwirkung [18]: gute bis sehr gute Herbizidwirkung (Boniturnoten von 1 bis 4 (insbesondere von 1 bis 3) weisen auf eine gute bis sehr gute Herbizidwirkung hin) | Herbizidwirkung [19]: gute bis sehr gute Herbizidwirkung (Boniturnoten von 1 bis 4 (insbesondere von 1 bis 3) weisen auf eine gute bis sehr gute Herbizidwirkung hin) | Herbizidwirkung [20]: gute bis sehr gute Herbizidwirkung (Boniturnoten von 1 bis 4 (insbesondere von 1 bis 3) weisen auf eine gute bis sehr gute Herbizidwirkung hin) | Herbizidwirkung [21]: gute bis sehr gute Herbizidwirkung (Boniturnoten von 1 bis 4 (insbesondere von 1 bis 3) weisen auf eine gute bis sehr gute Herbizidwirkung hin) | Herbizidwirkung [22]: gute bis sehr gute Herbizidwirkung (Boniturnoten von 1 bis 4 (insbesondere von 1 bis 3) weisen auf eine gute bis sehr gute Herbizidwirkung hin) | Herbizidwirkung [23]: gute bis sehr gute Herbizidwirkung (Boniturnoten von 1 bis 4 (insbesondere von 1 bis 3) weisen auf eine gute bis sehr gute Herbizidwirkung hin) | Herbizidwirkung [24]: gute bis sehr gute Herbizidwirkung (Boniturnoten von 1 bis 4 (insbesondere von 1 bis 3) weisen auf eine gute bis sehr gute Herbizidwirkung hin) | Herbizidwirkung [25]: gute bis sehr gute Herbizidwirkung (Boniturnoten von 1 bis 4 (insbesondere von 1 bis 3) weisen auf eine gute bis sehr gute Herbizidwirkung hin) | Herbizidwirkung [26]: gute bis sehr gute Herbizidwirkung (Boniturnoten von 1 bis 4 (insbesondere von 1 bis 3) weisen auf eine gute bis sehr gute Herbizidwirkung hin) | Herbizidwirkung [27]: gute bis sehr gute Herbizidwirkung (Boniturnoten von 1 bis 4 (insbesondere von 1 bis 3) weisen auf eine gute bis sehr gute Herbizidwirkung hin) | Herbizidwirkung [28]: gute bis sehr gute Herbizidwirkung (Boniturnoten von 1 bis 4 (insbesondere von 1 bis 3) weisen auf eine gute bis sehr gute Herbizidwirkung hin) | Herbizidwirkung [29]: gute bis sehr gute Herbizidwirkung (Boniturnoten von 1 bis 4 (insbesondere von 1 bis 3) weisen auf eine gute bis sehr gute Herbizidwirkung hin) | Herbizidwirkung [30]: gute bis sehr gute Herbizidwirkung (Boniturnoten von 1 bis 4 (insbesondere von 1 bis 3) weisen auf eine gute bis sehr gute Herbizidwirkung hin) | Herbizidwirkung [31]: gute bis sehr gute Herbizidwirkung (Boniturnoten von 1 bis 4 (insbesondere von 1 bis 3) weisen auf eine gute bis sehr gute Herbizidwirkung hin) | Herbizidwirkung [32]: gute bis sehr gute Herbizidwirkung (Boniturnoten von 1 bis 4 (insbesondere von 1 bis 3) weisen auf eine gute bis sehr gute Herbizidwirkung hin) | Herbizidwirkung [33]: gute bis sehr gute Herbizidwirkung (Boniturnoten von 1 bis 4 (insbesondere von 1 bis 3) weisen auf eine gute bis sehr gute Herbizidwirkung hin) | Herbizidwirkung [34]: gute bis sehr gute Herbizidwirkung (Boniturnoten von 1 bis 4 (insbesondere von 1 bis 3) weisen auf eine gute bis sehr gute Herbizidwirkung hin)

Source: patent publication EP0327492A1, “Herbicidally and plantgrowth regulatory active quinoline and pyrindine compounds” (CIBA-GEIGY AG, priority 1988, dated 1989)
